Test results published in ChEMBL document CHEMBL1153295, “Stereoselective synthesis of 15- and 16-substituted isosteviol derivatives and their cytotoxic activities” (Bioorg Med Chem Lett, 2009).
Calls of active or inactive are those of the source. No cut-off for these calls is given here.

system: B16-F10; assay: Cytotoxicity against mouse B16F10 cells after 48 hrs by MTT assay; format: functional, cell-based; details: B16-F10, 48 h

Structure (SMILES) | IC50 [µM]
C=C[C@]12CC[C@H]3[C@@](C)(CCC[C@@]3(C)C(=O)OCC)[C@@H]1CC[C@](C)(O)C2 | 26
CCOC(=O)[C@]1(C)CCC[C@@]2(C)[C@@H]3CC[C@@]4(C)C[C@]3(CC[C@@H]21)c1cn(-c2ccccc2)nc14 | 19
CCOC(=O)[C@]1(C)CCC[C@@]2(C)[C@@H]3CC[C@@]4(C)C[C@]3(CC[C@@H]21)[C@H](COC(=O)c1cccnc1)[C@H]4OC(=O)c1cccnc1 | 22
CCOC(=O)[C@]1(C)CCC[C@@]2(C)[C@@H]3CC[C@@]4(C)C[C@]3(CC[C@@H]21)[C@H](COC(=O)c1cccnc1)[C@H]4O | 25
CCOC(=O)[C@]1(C)CCC[C@@]2(C)[C@@H]3CC[C@@]4(C)C[C@]3(CC[C@@H]21)[C@H](CO)[C@H]4O | 68
C=C[C@]12CC[C@H]3[C@@](C)(CCC[C@@]3(C)C(=O)OCC)[C@@H]1CC[C@](C)(CO)C2 | 24
CCOC(=O)[C@]1(C)CCC[C@@]2(C)[C@@H]3CC[C@@]4(C)C[C@]3(CC[C@@H]21)C[C@H]4O | 58
C=C[C@]12CC[C@H]3[C@@](C)(CCC[C@@]3(C)C(=O)OCC)[C@@H]1CC[C@](C)(C=N)C2 | 27.5
CCOC(=O)[C@]1(C)CCC[C@@]2(C)[C@@H]3CC[C@@]4(C)C[C@]3(CC[C@@H]21)[C@@H]1CON[C@@H]14 | 15
CCOC(=O)[C@]1(C)CCC[C@@]2(C)[C@@H]3CC[C@@]4(C)C[C@]3(CC[C@@H]21)[C@@H]1CN(c2ccc([N+](=O)[O-])cc2)N=C14 | 21

system: B16-F10; assay: Cytotoxicity against mouse B16F10 cells at 100 uM after 48 hrs by MTT assay; format: functional; details: not given

Structure (SMILES) | inhibition
C[C@@]12CC[C@@H]3[C@@](CC[C@H]4[C@@]3(C)CCC[C@@]4(C)C(=O)O)(CC1=O)C2 | inactive
CCOC(=O)[C@]1(C)CCC[C@@]2(C)[C@@H]3CC[C@@]4(C)C[C@]3(CC[C@@H]21)[C@@H]1CO[C@H]4O1 | inactive
CCOC(=O)[C@]1(C)CCC[C@@]2(C)[C@@H]3CC[C@@]4(C)C[C@]3(CC[C@@H]21)[C@H](CO[N+](=O)[O-])[C@H]4O[N+](=O)[O-] | inactive
CCOC(=O)[C@]1(C)CCC[C@@]2(C)[C@@H]3CC[C@@]4(C)C[C@]3(CC[C@@H]21)CC4=O | inactive
C[C@]12CC[C@H]3[C@]4(C)CCC[C@@](C)(C(=O)O)[C@H]4CC[C@@]3(C1)[C@H](CO)[C@H]2O | inactive
C[C@@]12CC[C@@H]3[C@@](CC[C@H]4[C@@]3(C)CCC[C@@]4(C)C(=O)O)(C[C@H]1O)C2 | inactive
C=C[C@]12CC[C@H]3[C@@](C)(CCC[C@@]3(C)C(=O)OCC)[C@@H]1CC[C@](C)(C(=O)O)C2 | inactive
C=C[C@]12CC[C@H]3[C@@](C)(CCC[C@@]3(C)C(=O)OCC)[C@@H]1CC[C@](C)(C=O)C2 | inactive
CCOC(=O)[C@]1(C)CCC[C@@]2(C)[C@@H]3CC[C@@]4(C)C[C@]3(CC[C@@H]21)[C@@H]1CON(C)[C@@H]14 | inactive
C=CC(=O)O[C@@H]1C[C@]23CC[C@H]4[C@@](C)(CCC[C@@]4(C)C(=O)OCC)[C@@H]2CC[C@@]1(C)C3 | inactive

same assay, conditions: B16-F10, 48 h

Structure (SMILES) | inhibition at 100 µM [%]
C=C[C@]12CC[C@H]3[C@@](C)(CCC[C@@]3(C)C(=O)OCC)[C@@H]1CC[C@](C)(CN)C2 | 34.3
